# Measured values reported in patent US20020051978A1, “Methods and compositions for the identification, assessment, prevention and therapy of human cancers” (priority 2000, published 2002).
# Structures can show the parent of a compound that is named as a salt.
# Tested on: 60 cancer cell lines (NCI 60 cancer cell line series)
# Assay: NCI-DTP in vitro cancer screen, sulforhodamine B (SRB) growth inhibition, 48 hour exposure
# Type: cell-based, human
# Design: key to sensitivity class Ovarian OVCAR-8 CL6005 / sensitivity class Ovarian SK-OV-3 CL6011 / sensitivity class Prostate DU-145 CL11003 / sensitivity class NSCLC NCI-H522 CL1003 / sensitivity class Ovarian IGROV1 CL6010 / sensitivity class Ovarian OVCAR-4 CL6002 / sensitivity class Prostate PC-3(I) CL11001 / sensitivity class Renal A498 CL9013 / sensitivity class Renal SN12C CL9008: sensitivity class: 1 = Low, 2 = Medium, 3 = High
# Procedure, shortened: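 Values come from the NCI-DTP screen database: -log GI50, the concentration giving 50% growth inhibition, derived from SRB cell-mass dose-response curves. Each line seeded at its own density, treated day 1 at five ten-fold-spaced doses in duplicate wells, stained after 48 h.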
compound,measurement,setting,value
CC[C@]1(O)C[C@H]2CN(CCc3c([nH]c4ccccc34)[C@@](C(=O)OC)(c3cc4c(cc3OC)N(C=O)[C@H]3[C@@](O)(C(=O)OC)[C@H](OC(C)=O)[C@]5(CC)C=CCN6CC[C@]43[C@@H]65)C2)C1 [Vincristine sulfate],"classification of cell line as Low(1), Medium(2) or High(3) sensitivity to compound",Breast BT-549 (CL5013),2
same,"classification of cell line as Low(1), Medium(2) or High(3) sensitivity to compound",Breast HS-578T CL5006,2
same,"classification of cell line as Low(1), Medium(2) or High(3) sensitivity to compound",Breast MCF7(I) (CL5001),2
same,"classification of cell line as Low(1), Medium(2) or High(3) sensitivity to compound",Breast MCF7/ADRr (CL5002),2
same,"classification of cell line as Low(1), Medium(2) or High(3) sensitivity to compound",Breast MDA-MB-231 CL5005,2
same,"classification of cell line as Low(1), Medium(2) or High(3) sensitivity to compound",Breast MDA-MB-435 (CL5011),2
same,"classification of cell line as Low(1), Medium(2) or High(3) sensitivity to compound",Breast MDA-N CL5012,1
same,"classification of cell line as Low(1), Medium(2) or High(3) sensitivity to compound",Breast T-47D (CL5014),2
same,"classification of cell line as Low(1), Medium(2) or High(3) sensitivity to compound",CNS SF-268 CL12014,3
same,"classification of cell line as Low(1), Medium(2) or High(3) sensitivity to compound",CNS SF-295 CL12015,3
same,"classification of cell line as Low(1), Medium(2) or High(3) sensitivity to compound",CNS SF-539 CL12016,3
same,"classification of cell line as Low(1), Medium(2) or High(3) sensitivity to compound",CNS SNB-19 (CL12002),2
same,"classification of cell line as Low(1), Medium(2) or High(3) sensitivity to compound",CNS SNB-75(I) CL12005,2
same,"classification of cell line as Low(1), Medium(2) or High(3) sensitivity to compound",CNS U251(I) CL12009,2
same,"classification of cell line as Low(1), Medium(2) or High(3) sensitivity to compound",Colon COLO-250 CL4010,2
same,"classification of cell line as Low(1), Medium(2) or High(3) sensitivity to compound",Colon HCC-2998 (CL4002),2
same,"classification of cell line as Low(1), Medium(2) or High(3) sensitivity to compound",Colon HCT-15 CL4015,2
same,"classification of cell line as Low(1), Medium(2) or High(3) sensitivity to compound",Colon HCT-116 (CL4003),2
same,"classification of cell line as Low(1), Medium(2) or High(3) sensitivity to compound",Colon HT29(I) CL4001,3
same,"classification of cell line as Low(1), Medium(2) or High(3) sensitivity to compound",Colon KM12 (CL4017),3
same,"classification of cell line as Low(1), Medium(2) or High(3) sensitivity to compound",Colon SW-620 (CL4009),3
same,"classification of cell line as Low(1), Medium(2) or High(3) sensitivity to compound",Leukemia CCRF-CEM(I) (CL7003),3
same,"classification of cell line as Low(1), Medium(2) or High(3) sensitivity to compound",Leukemia HL-60(I) (CL7008),3
same,"classification of cell line as Low(1), Medium(2) or High(3) sensitivity to compound",Leukemia K562(I) CL7005,3
same,"classification of cell line as Low(1), Medium(2) or High(3) sensitivity to compound",Leukemia MOLT-4 (CL7006),3
same,"classification of cell line as Low(1), Medium(2) or High(3) sensitivity to compound",Leukemia RPMI-8226(I) (CL7010),3
same,"classification of cell line as Low(1), Medium(2) or High(3) sensitivity to compound",Leukemia SR CL7019,3
same,"classification of cell line as Low(1), Medium(2) or High(3) sensitivity to compound",Melanoma LOX IMVI CL10001,3
same,"classification of cell line as Low(1), Medium(2) or High(3) sensitivity to compound",Melanoma M14 (CL10014),2
same,"classification of cell line as Low(1), Medium(2) or High(3) sensitivity to compound",Melanoma MALME-3M CL10002,2
same,"classification of cell line as Low(1), Medium(2) or High(3) sensitivity to compound",Melanoma SK-MEL-2 (CL10005),2
same,"classification of cell line as Low(1), Medium(2) or High(3) sensitivity to compound",Melanoma SK-MEL-5 (CL10007),3
same,"classification of cell line as Low(1), Medium(2) or High(3) sensitivity to compound",Melanoma SK-MEL-28 (CL10008),1
same,"classification of cell line as Low(1), Medium(2) or High(3) sensitivity to compound",Melanoma UACC-62 (CL10020),2
same,"classification of cell line as Low(1), Medium(2) or High(3) sensitivity to compound",Melanoma UACC-257 (CL10021),2
same,"classification of cell line as Low(1), Medium(2) or High(3) sensitivity to compound",NSCLC A549/ATCC (CL1004),2
same,"classification of cell line as Low(1), Medium(2) or High(3) sensitivity to compound",NSCLC EKVX (CL1008),1
same,"classification of cell line as Low(1), Medium(2) or High(3) sensitivity to compound",NSCLC HOP-62 (CL1026),2
same,"classification of cell line as Low(1), Medium(2) or High(3) sensitivity to compound",NSCLC HOP-92 (CL1029),2
same,"classification of cell line as Low(1), Medium(2) or High(3) sensitivity to compound",NSCLC NCI-H226 CL1013,2
same,sensitivity class NSCLC NCI-H23(I) CL1001,"cell line NSCLC NCI-H23(I), CL1001",3
same,sensitivity class NSCLC NCI-H332M CL1017,"cell line NSCLC NCI-H332M, CL1017",2
same,sensitivity class NSCLC NCI-H460 CL1021,"cell line NSCLC NCI-H460, CL1021",3
same,sensitivity class NSCLC NCI-H522 CL1003,"cell line NSCLC NCI-H522, CL1003",3
same,sensitivity class Ovarian IGROV1 CL6010,"cell line Ovarian IGROV1, CL6010",3
same,sensitivity class Ovarian OVCAR-3 CL6001,"cell line Ovarian OVCAR-3, CL6001",3
same,sensitivity class Ovarian OVCAR-4 CL6002,"cell line Ovarian OVCAR-4, CL6002",2
same,sensitivity class Ovarian OVCAR-5 CL6003,"cell line Ovarian OVCAR-5, CL6003",1
same,sensitivity class Ovarian OVCAR-8 CL6005,"cell line Ovarian OVCAR-8, CL6005",3
same,sensitivity class Ovarian SK-OV-3 CL6011,"cell line Ovarian SK-OV-3, CL6011",2
same,sensitivity class Prostate DU-145 CL11003,"cell line Prostate DU-145, CL11003",2
same,sensitivity class Prostate PC-3(I) CL11001,"cell line Prostate PC-3(I), CL11001",2
same,sensitivity class Renal 786-O CL9018,"cell line Renal 786-O, CL9018",2
same,sensitivity class Renal A498 CL9013,"cell line Renal A498, CL9013",3
same,sensitivity class Renal ACHN CL9023,"cell line Renal ACHN, CL9023",2
same,sensitivity class Renal CAKI-1 CL9015,"cell line Renal CAKI-1, CL9015",2
same,sensitivity class Renal RXF-393 CL9016,"cell line Renal RXF-393, CL9016",2
same,sensitivity class Renal SN12C CL9008,"cell line Renal SN12C, CL9008",2
same,sensitivity class Renal TK10 CL9024,"cell line Renal TK10, CL9024",1
same,sensitivity class Renal UO-31 CL9004,"cell line Renal UO-31, CL9004",1
